Results as given in patent US20100028420A1, “CONTROLLED RELEASE COMPOSITION AND PROCESS” (3M Innovative Properties Company, priority 2006, published 2010).
Where two headings read alike, the source gives them in different places.

Test: Titration of dispersed solid with sodium hydroxide (pKa from titration curve)
Format: physicochemical
Settings: for pKa: dispersion of the solid in deionized water
Protocol: The Comparative Compound (1.0 g) was dispersed in deionized water (199 mL) using a shear mixer/emulsifier (Silverson Model L4R, Silverson Machines, Ltd., Waterside, Chesham, Bucks, England) for approximately 5 minutes. Cresol red indicator (0.04 weight percent in water; 4 drops) was added to aid in end point detection. Samples were titrated (using a 50 mL buret with 0.1 mL graduation) with rapid stirring to maintain suspension of dispersed solid in the liquid medium (0.1 N analytical standard grade sodium hydroxide from Mallinckrodt Baker, Phillipsburg, N.J.) over a period of 1-3 hours. The dispersion became clear after 2 equivalents of base had been added, indicating conversion of the Comparative Compound to a compound corresponding to the righthand structure above. […] At higher concentrations, a liquid crystalline phase potentially useful for encapsulation of guest molecules is formed between a pH of about 7 and a pH of about 8. This phase forms at a steep end point transition of the titration curve, where even a small addition of base caused a significant change in pH (indicating a need for careful monitoring and control of the amount of base addition for use of the Comparative Compound in, for example, the encapsulation of pH-sensitive guest molecules).
(§1) Folic acid (1.0 g) was dispersed in deionized water (199 mL) using a Silverson L4R shear mixer/emulsifier for approximately 5 minutes. Cresol red indicator (0.04 weight percent in water; 4 drops) was added to aid in end point detection. Samples were titrated (using a 50 mL buret with 0.1 mL graduation) with rapid stirring to maintain suspension of dispersed solid in the liquid medium during the addition of base (0.1 N analytical standard grade sodium hydroxide from Mallinckrodt Baker, Phillipsburg, N.J.). The dispersion became clear after 2 equivalents of base had been added.
as §1, with “(2.0” for “(1.0”, “(198” for “(199”, “(0.2” for “(0.1”

[1] = 0.5 weight percent dispersion in deionized water, 0.1 N NaOH

pKa (0.5 weight percent dispersion in deionized water, 0.1 N NaOH, read-out: first pKa) | pKa (0.5 weight percent dispersion in deionized water, 0.1 N NaOH, read-out: second pKa) | pKa (1 weight percent dispersion in deionized water, 0.2 N NaOH, read-out: first pKa) | pKa (1 weight percent dispersion in deionized water, 0.2 N NaOH, read-out: second pKa) | SMILES | first pKa [1] | second pKa [1]
~5.8 | ~5.8 | ~6.1 | ~6.1 | Nc1nc(=O)c2nc(CNc3ccc(C(=O)N[C@@H](CCC(=O)O)C(=O)O)cc3)cnc2[nH]1 [Folic acid] |  | 
 |  |  |  | Cn1cc[n+](-c2nc(Nc3ccc(C(=O)O)cc3)nc(Nc3ccc(C(=O)O)cc3)n2)c1.[Cl-] [Comparative Compound] | about 3.2 | about 5.8
